Experimental data from US10375956B2, “Herbicidally active 2-(substituted-phenyl)-cyclopentane-1,3-dione compounds and derivatives thereof” (Syngenta Limited, priority 2013, dated 2019).

Key:
Format in all cases: in vivo
[1] = test system: Abutilon theophrasti (ABUTH); test: Test 1 glasshouse assay, pre-emergence herbicidal activity; details: 312 h, visual evaluation after 13 days, read-out: Percentage phytotoxicity ABUTH
Procedure: (§1) Seeds of a variety of test species are sown in standard soil in pots. After cultivation for one day (pre-emergence) or after 8 days cultivation (post-emergence) under controlled conditions in a glasshouse (at 24/16° C., day/night; 14 hours light; 65% humidity), the plants are sprayed with an aqueous spray solution derived from the formulation of the “technical” (i.e. unformulated) active ingredient in acetone/water (50:50) solution containing 0.5% Tween 20 (polyoxyethylene sorbitan monolaurate, CAS Registry Number 9005-64-5). The test plants are then grown on under controlled conditions in a glasshouse (at 24/16° C., day/night; 14 hours light; 65% humidity) and watered twice daily. After 13 days for pre- or post-emergence, the test is evaluated visually, and an assessed percentage phytotoxicity score is given for each herbicidal application on each plant species (where 100%=total damage to plant; 0%=no damage to plant).
(§2) Test plants include the following: Abutilon theophrasti (ABUTH), Amaranthus retroflexus (AMARE): these are dicotyledonous (broadleaved) weeds. Setaria faberi (SETFA), Alopecurus myosuroides (ALOMY), Echinochloa crus-galli (ECHCG): these are grassy monocotyledonous weeds. Also: Zea mays (ZEAMX, corn/maize), which can be a grassy weed (“volunteer” corn) in some circumstances.

[2] = test system: Alopecurus myosuroides (ALOMY); test: as above; details: 312 h, visual evaluation after 13 days, read-out: Percentage phytotoxicity ALOMY
Procedure: as §1, §2

[3] = test system: Amaranthus retroflexus (AMARE); test: as above; details: 312 h, visual evaluation after 13 days, read-out: Percentage phytotoxicity AMARE
Procedure: as §1, §2

[4] = test system: Echinochloa crus-galli (ECHCG); test: as above; details: 312 h, visual evaluation after 13 days, read-out: Percentage phytotoxicity ECHCG
Procedure: as §1, §2

Setaria faberi (SETFA) [5] = test: as above; details: 312 h, visual evaluation after 13 days, read-out: Percentage phytotoxicity SETFA
Procedure: as §1, §2

[6] = test system: Zea mays (ZEAMX, corn/maize); test: as above; details: 312 h, visual evaluation after 13 days, read-out: Percentage phytotoxicity ZEAMX
Procedure: as §1, §2

[7] = test system: Abutilon theophrasti (ABUTH); test: Test 1 glasshouse assay, post-emergence herbicidal activity; details: 312 h, post-emergence (Example 1B Table 1), after 13 days, read-out: Percentage phytotoxicity ABUTH
Procedure: as §1
(§3) Test plants include the following: Abutilon theophrasti (ABUTH) and Amaranthus retroflexus (AMARE); these are all dicotyledonous (broadleaved) weeds. Setaria faberi (SETFA), Alopecurus myosuroides (ALOMY), and Echinochloa crus-galli (ECHCG); these are all grassy monocotyledonous weeds. Also: Zea mays (ZEAMX, corn/maize), which can be a grassy weed (“volunteer” corn) in some circumstances.

[8] = test system: Amaranthus retroflexus (AMARE); test: as above; details: 312 h, post-emergence (Example 1B Table 1), after 13 days, read-out: Percentage phytotoxicity AMARE
Procedure: as §1, §3

Setaria faberi (SETFA) [9] = test: as above; details: 312 h, post-emergence (Example 1B Table 1), after 13 days, read-out: Percentage phytotoxicity SETFA
Procedure: as §1, §3

[10] = test system: Zea mays (ZEAMX, corn/maize); test: as above; details: 312 h, post-emergence (Example 1B Table 1), after 13 days, read-out: Percentage phytotoxicity ZEAMX
Procedure: as §1, §3

[11] = test system: Alopecurus myosuroides (ALOMY); test: as above; details: 312 h, after 13 days, read-out: Percentage phytotoxicity ALOMY
Procedure: as §1, §3
(§4) Lolium perenne (LOLPE), Alopecurus myosuroides (ALOMY), Echinochloa crus-galli (ECHCG), and Avena fatua (AVEFA); these are all grassy monocotyledonous weeds. Cool climate crop plant: Triticum aestivum (TRZAW, winter wheat).

[12] = test system: Echinochloa crus-galli (ECHCG); test: as above; details: 312 h, after 13 days, read-out: Percentage phytotoxicity ECHCG
Procedure: as §1, §3, §4

Avena fatua (AVEFA) = test: as above; details: 312 h, post-emergence (Example 1B Table 2), after 13 days, read-out: Percentage phytotoxicity AVEFA
Procedure: as §1, §4

Lolium perenne (LOLPE) = test: as above; details: 312 h, post-emergence (Example 1B Table 2), after 13 days, read-out: Percentage phytotoxicity LOLPE
Procedure: as §1, §4

[13] = test system: Triticum aestivum (TRZAW, winter wheat); test: as above; details: 312 h, post-emergence (Example 1B Table 2), after 13 days, crop plant, read-out: Percentage phytotoxicity TRZAW
Procedure: as §1, §4

[14] = post-emergence (Example 1B Table 1)
[15] = post-emergence (Example 1B Table 2)
[16] = post-emergence (Example 1B Table 1), 8 g/ha

C#CCC1CC(=O)C(c2c(F)cc(-c3ccc(F)cc3)cc2Cl)C1=O (centres unmarked) [Compound A4]
pest or weed control at 250 g/ha [1]: 0%
pest or weed control at 250 g/ha [2]: 90%
pest or weed control at 250 g/ha [3]: 80%
pest or weed control at 250 g/ha [4]: 100%
pest or weed control at 250 g/ha (Setaria faberi (SETFA) [5]): 100%
pest or weed control at 250 g/ha [6]: 100%
pest or weed control at 30 g/ha [7]: 40%
pest or weed control at 250 g/ha [7]: 80%
pest or weed control at 30 g/ha [8]: 60%
pest or weed control at 250 g/ha [8]: 80%
pest or weed control at 30 g/ha (Setaria faberi (SETFA) [9]): 100%
pest or weed control at 250 g/ha (Setaria faberi (SETFA) [9]): 100%
pest or weed control at 30 g/ha [10]: 100%
pest or weed control at 250 g/ha [10]: 100%
pest or weed control at 30 g/ha [11, 14]: 70%
pest or weed control at 250 g/ha [11, 14]: 100%
pest or weed control at 30 g/ha [12, 14]: 90%
pest or weed control at 250 g/ha [12, 14]: 100%

C#CCC1CC(=O)C(c2c(C)cc(-n3cc(Cl)cn3)cc2C)C1=O (centres unmarked) [Compound A9]
pest or weed control at 250 g/ha [1]: 40%
pest or weed control at 250 g/ha [2]: 70%
pest or weed control at 250 g/ha [3]: 70%
pest or weed control at 250 g/ha [4]: 100%
pest or weed control at 250 g/ha (Setaria faberi (SETFA) [5]): 100%
pest or weed control at 250 g/ha [6]: 80%
pest or weed control at 250 g/ha [7]: 80%
pest or weed control at 250 g/ha [8]: 80%
pest or weed control at 250 g/ha (Setaria faberi (SETFA) [9]): 100%
pest or weed control at 250 g/ha [10]: 100%
pest or weed control at 250 g/ha [11, 14]: 100%
pest or weed control at 250 g/ha [12, 14]: 100%

C#CCC1CC(=O)C(c2cc(-c3ccc(Cl)cc3)ccc2C)C1=O (centres unmarked) [Compound A16]
pest or weed control at 250 g/ha [1]: 40%
pest or weed control at 250 g/ha [2]: 90%
pest or weed control at 250 g/ha [3]: 40%
pest or weed control at 250 g/ha [4]: 90%
pest or weed control at 250 g/ha (Setaria faberi (SETFA) [5]): 90%
pest or weed control at 250 g/ha [6]: 80%
pest or weed control at 30 g/ha [7]: 40%
pest or weed control at 250 g/ha [7]: 40%
pest or weed control at 30 g/ha [8]: 0%
pest or weed control at 250 g/ha [8]: 60%
pest or weed control at 30 g/ha (Setaria faberi (SETFA) [9]): 80%
pest or weed control at 250 g/ha (Setaria faberi (SETFA) [9]): 90%
pest or weed control at 30 g/ha [10]: 80%
pest or weed control at 250 g/ha [10]: 60%
pest or weed control at 30 g/ha [11, 14]: 70%
pest or weed control at 250 g/ha [11, 14]: 90%
pest or weed control at 30 g/ha [12, 14]: 40%
pest or weed control at 250 g/ha [12, 14]: 100%

CC#CCC1CC(=O)C(c2c(C)cc(C)cc2C)C1=O (centres unmarked) [Compound A24]
pest or weed control at 250 g/ha [2]: 100%
pest or weed control at 250 g/ha [4]: 100%
pest or weed control at 62.5 g/ha [11, 15]: 60%
pest or weed control at 250 g/ha [11, 15]: 80%
pest or weed control at 62.5 g/ha [12, 15]: 70%
pest or weed control at 250 g/ha [12, 15]: 80%
pest or weed control at 62.5 g/ha (Avena fatua (AVEFA)): 60%
pest or weed control at 250 g/ha (Avena fatua (AVEFA)): 50%
pest or weed control at 62.5 g/ha (Lolium perenne (LOLPE)): 70%
pest or weed control at 250 g/ha (Lolium perenne (LOLPE)): 80%
plant injury at 62.5 g/ha [13]: 0%
plant injury at 250 g/ha [13]: 0%

C#CCC1CC(=O)C(c2c(Br)cc(C)cc2Br)C1=O (centres unmarked) [Compound A26]
pest or weed control at 250 g/ha [2]: 30%
pest or weed control at 250 g/ha [4]: 80%
pest or weed control at 250 g/ha [11, 15]: 60%
pest or weed control at 250 g/ha [12, 15]: 100%
pest or weed control at 250 g/ha (Avena fatua (AVEFA)): 70%
pest or weed control at 250 g/ha (Lolium perenne (LOLPE)): 100%
plant injury at 250 g/ha [13]: 10%

C#CCC1CC(=O)C(c2c(C)cc(C#C)cc2C)C1=O (centres unmarked) [Compound A27]
pest or weed control at 250 g/ha [2]: 100%
pest or weed control at 250 g/ha [4]: 100%
pest or weed control at 62.5 g/ha [11, 15]: 90%
pest or weed control at 250 g/ha [11, 15]: 100%
pest or weed control at 62.5 g/ha [12, 15]: 90%
pest or weed control at 250 g/ha [12, 15]: 100%
pest or weed control at 62.5 g/ha (Avena fatua (AVEFA)): 90%
pest or weed control at 250 g/ha (Avena fatua (AVEFA)): 100%
pest or weed control at 62.5 g/ha (Lolium perenne (LOLPE)): 80%
pest or weed control at 250 g/ha (Lolium perenne (LOLPE)): 100%
plant injury at 62.5 g/ha [13]: 80%
plant injury at 250 g/ha [13]: 90%

C#Cc1cc(C)c(C2C(=O)CC(CC#CC)C2=O)c(C)c1 (centres unmarked) [Compound A28]
pest or weed control at 250 g/ha [2]: 90%
pest or weed control at 250 g/ha [4]: 100%
pest or weed control at 62.5 g/ha [11, 15]: 70%
pest or weed control at 250 g/ha [11, 15]: 100%
pest or weed control at 62.5 g/ha [12, 15]: 90%
pest or weed control at 250 g/ha [12, 15]: 100%
pest or weed control at 62.5 g/ha (Avena fatua (AVEFA)): 80%
pest or weed control at 250 g/ha (Avena fatua (AVEFA)): 90%
pest or weed control at 62.5 g/ha (Lolium perenne (LOLPE)): 80%
pest or weed control at 250 g/ha (Lolium perenne (LOLPE)): 90%
plant injury at 62.5 g/ha [13]: 30%
plant injury at 250 g/ha [13]: 80%

C#CCC1CC(=O)C(c2c(Cl)cccc2Cl)C1=O (centres unmarked) [Compound A29]
pest or weed control at 250 g/ha [2]: 70%
pest or weed control at 250 g/ha [4]: 90%
pest or weed control at 62.5 g/ha [11, 15]: 60%
pest or weed control at 250 g/ha [11, 15]: 80%
pest or weed control at 62.5 g/ha [12, 15]: 90%
pest or weed control at 250 g/ha [12, 15]: 100%
pest or weed control at 62.5 g/ha (Avena fatua (AVEFA)): 0%
pest or weed control at 250 g/ha (Avena fatua (AVEFA)): 60%
pest or weed control at 62.5 g/ha (Lolium perenne (LOLPE)): 60%
pest or weed control at 250 g/ha (Lolium perenne (LOLPE)): 80%
plant injury at 62.5 g/ha [13]: 60%
plant injury at 250 g/ha [13]: 80%

C#CCC1CC(=O)C(c2ccc(-c3ccc(Cl)cc3)cc2C)C1=O (centres unmarked) [Compound A43]
pest or weed control at 250 g/ha [8]: 0%
pest or weed control at 250 g/ha (Setaria faberi (SETFA) [9]): 70%
pest or weed control at 250 g/ha [11, 14]: 20%
pest or weed control at 250 g/ha [12, 14]: 20%

C#CCC1C(=O)C(c2cc(-c3ccc(Cl)cc3)ccc2C)C(=O)C1CC#C (centres unmarked) [Compound A44]
pest or weed control at 8 g/ha ([7]; 8 g/ha): 0%
pest or weed control at 250 g/ha [7]: 10%
pest or weed control at 8 g/ha ([8]; 8 g/ha): 0%
pest or weed control at 250 g/ha [8]: 0%
pest or weed control at 8 g/ha (Setaria faberi (SETFA) [9]; 8 g/ha): 0%
pest or weed control at 250 g/ha (Setaria faberi (SETFA) [9]): 0%
pest or weed control at 8 g/ha ([10]; 8 g/ha): 30%
pest or weed control at 250 g/ha [10]: 20%
pest or weed control at 8 g/ha [11, 16]: 0%
pest or weed control at 250 g/ha [11, 14]: 0%
pest or weed control at 8 g/ha [12, 16]: 0%
pest or weed control at 250 g/ha [12, 14]: 0%
